≈ marks a conversion by molar mass, not a printed value.
Tests used:
Type in all cases: functional
Staphylococcus aureus [1] = assay: Antibacterial activity against methicillin-sensitive Staphylococcus aureus assessed as reduction in microbial growth incubated for 18 to 24 hrs by serial dilution method; conditions: time 18-24 hrs
[2] = tested on: Staphylococcus epidermidis; assay: Antibacterial activity against Methicillin-sensitive Staphylococcus epidermidis assessed as bacterial growth inhibition
Enterococcus faecalis = assay: Antibacterial activity against Enterococcus faecalis assessed as bacterial growth inhibition
Staphylococcus aureus [3] = assay: Antibacterial activity against methicillin-resistant Staphylococcus aureus assessed as reduction in microbial growth incubated for 18 to 24 hrs by serial dilution method; conditions: time 18-24 hrs
[4] = tested on: Staphylococcus epidermidis; assay: Antibacterial activity against Methicillin-resistant Staphylococcus epidermidis assessed as bacterial growth inhibition
Staphylococcus aureus [5] = assay: Antibacterial activity against Staphylococcus aureus assessed as reduction in microbial growth incubated for 18 to 24 hrs by serial dilution method; conditions: time 18-24 hrs
Enterococcus faecium = assay: Antibacterial activity against Enterococcus faecium ATCC 700221

`CN[C@H](CC(C)C)C(=O)N[C@H]1C(=O)N[C@@H](CC(N)=O)C(=O)N[C@H]2C(=O)N[C@H]3C(=O)N[C@H](C(=O)N[C@H](C(=O)O)c4cc(O)cc(O)c4-c4cc3ccc4O)[C@H](O)c3ccc(c(Cl)c3)Oc3cc2cc(c3O[C@@H]2O[C@H](CO)[C@@H](O)[C@H](O)[C@H]2O[C@H]2C[C@](C)(N)[C@H](O)[C@H](C)O2)Oc2ccc(cc2Cl)[C@H]1O` [VANCOMYCIN] was tested, and the MIC (Staphylococcus aureus [1]) was 0.25 µg/mL, the MIC [2] was 0.5 µg/mL (≈ 0.345 µM) and the MIC (Enterococcus faecalis) was 0.5 µg/mL (≈ 0.345 µM). For the same compound, the MIC (Staphylococcus aureus [3]) was 0.25 µg/mL, the MIC [4] was 0.5 µg/mL (≈ 0.345 µM) and the MIC (Staphylococcus aureus [5]) was 0.25 µg/mL. The MIC (Enterococcus faecium) was > 88.3 µM.
